Measured values taken from US10759777B2, “Carbazole-containing amides, carbamates, and ureas as cryptochrome modulators” (Synchronicity Pharma, Inc., priority 2014, dated 2020).

Assays:
[1] = tested on: core clock genes (Per2, Bmal1, Cry1, Cry2) and gluconeogenic genes (Pckl, G6Pc) in liver; test: 24 hour gene expression studies, liver mRNA by RT-qPCR; type: in vivo, mouse; conditions: 50 mg/kg PO BID
Excerpt: Male C57Bl/6J DIO mice were purchased at 17 weeks of age (The Jackson Laboratory, Sacramento, Calif.) and acclimated for a 2 week period before being used for the experiment. Overall group size was 15 per treatment, divided into 5 time-points to give a final group size of 3 mice.
In total, each mouse received 5 doses of compound over the course of the experiment. Mice were weighed and randomly assigned to each treatment based on weight the evening before the commencement of the study. Beginning on Day 3 at 3:00 PM, a group of animals from the vehicle and Compound 72-treated groups were euthanized using CO2 asphyxiation, 50 mg of liver, epididymal fat, and skeletal muscle, respectively, were excised and placed in tube containing 500 μl of RNALater. This procedure took place for the remainder of the time-point groups at their given harvest times. Plasma samples were also taken for each animal and frozen, to be used for later measurement of compound levels.
E.Z.N.A.® HP Total RNA Isolation Kits (R6812-01 and the protocol described in the Manual, Revised 2010) were utilized to prepare and isolate RNA from the liver samples. To prepare the RNA samples, 10-30 mg of sample was removed from RNA-Later and placed in a 1.5 ml microfuge tube. GTC lysis buffer (700 μl) was added to the tissue, which was homogenized with a rotor-stator homogenizer (e.g. Tissue-Tearor, Model #985370 BioSpec Products with 4.5 mm probe, Cat. #985370-04), and then centrifuged at full speed (≥13,000×g) for 5 minutes. The cleared supernatant was transferred by pipetting to a DNA Clearance Column Pre-inserted in a 2 mL Collection Tube. The assembled column was centrifuged at 13,000×g for 1 minute, and the flow-through was saved. An equal volume (700 μl) of 70% ethanol was added to the lysate and mixed. The sample was then applied to a HiBind RNA spin column placed into a 2 ml collection tube, which was centrifuged at 10,000×g for 60 seconds at room temperature. RNA Wash Buffer I (250 μl) was added by pipetting directly onto a new HiBind RNA column inserted in a 2 ml collection tube. The assembled column was centrifuged at 10,000×g for 60 seconds. The RNA column was placed into a new 2 ml collection tube. DNase I stock solution is pipetted (75 μl) directly onto the surface of the HiBind RNA resin in each column (Using DNAse Digestion with RNase Free DNase Set (E1091): for each HiBind RNA column, the DNase I stock solution was prepared as followed: E.Z.N.A.® DNase I Digestion Buffer 73.5 μl, RNase Free DNase I (20 Kunitz/μl) 1.5 μl=Total Volume 75 μl). The column with bound RNA was incubated at room temperature (25-30° C.) for 15 minutes. RNA Wash Buffer I (500 μl) was added to the column and placed on a bench top for 2 minutes. After centrifuging at 10,000×g for 60 seconds, discarding the flow-through, 500 μl of RNA Wash Buffer II was added and centrifuged at 10,000×g for 60 seconds. Another 500 μl of RNA Wash Buffer II was added and the column assembly was centrifuged at 10,000×g for 60 seconds. The column was centrifuged for 2 minutes at maximum speed to completely dry the HiBind matrix. The column was placed in a clean 1.5 ml microcentrifuge tube and 40-70 μl of molecular biology grade water is added. […]
RediPlate 96 RiboGreen RNA Quantification Kit (Invitrogen) RediPlate standard curve was prepared by transferring 20 l reconstituted RNA standard to a RediPlate well reconstituted in 180 l RediPlate TE buffer. […]

[2] = tested on: db/db mouse model of type II diabetes; test: Increasing dosages of Compound 72 over 7 days in db/db mice; type: in vivo
Excerpt: (§1) Significance was accepted when p<0.05.

C57/Bl6J DIO mice [3] = test: Compound 72 in diet-induced obesity (DIO) mouse model; type: in vivo; conditions: 100 mg/kg PO QD 7 days
Excerpt: (§2) Male C57/Bl6J DIO mice were obtained from The Jackson Laboratory (Sacramento, Calif.). […] Animals were accustomed to these conditions for at least 2 weeks before experimentation and used at approximately 24 weeks of age.
as §1

[4] = tested on: db/db mouse model of type II diabetes; test: Compound 72 administered over 7 days in db/db mice (glucose, insulin, compound levels); type: in vivo; conditions: 50 mg/kg PO QD 7 days
Excerpt: as §1

C57/Bl6J DIO mice [5] = test: Increasing dosages of Compound 72 in diet-induced obesity (DIO) mouse model; type: in vivo; conditions: 10, 30, 100 mg/kg PO QD 7 days
Excerpt: as §2, §1
Male C57/Bl6J DIO mice were obtained from The Jackson Laboratory (Sacramento, Calif.). […] Animals were accustomed to these conditions for at least 2 weeks before experimentation and used at approximately 26 weeks of age.

[6] = Pharmacokinetic analysis in ICR mice; type: in vivo; conditions: mouse, 50 mg/kg P.O.
Experimental: Male ICR mice (weighing 30-40 g, Charles River Laboratories) were used for the experiment with n=3 mice for each experimental group (27 mice total for the study). […] Blood and liver tissue were collected at the following time points after administration: 15, 30, 60, 90 minutes, 3, 6, 12 and 24 hours. A control group of animals (TO) was also sampled. Animals were euthanized with C02 and the blood collected from the heart using cardiac puncture, transferred to an EDTA tube, and then centrifuged at 5400 rpm for 5 minutes at 4° C. The resultant plasma was frozen using dry ice and then stored at −80° C. until ready for assay. Liver tissue was removed from each animal, 0.5 g was collected in an eppendorff, frozen and submitted for pharmacokinetic measurement. […] Raw data was analyzed using WinNonLin for PK parameters (Cmax, Tmax, elimination t^1/2, MRT (mean residence time), AUC (area under the curve)−(0-last and % extrapolated).

% AUC extrapolated ([6]; liver): 0.85% | Tmax (hr) ([6]; liver): 0.25 − hr | Tmax (hr) ([6]; plasma): 0.25 − hr
Structure (SMILES): O=C1NCCN1CC(O)Cn1c2ccc(F)cc2c2cc(F)ccc21 (centres unmarked) [Compound 72, 1-(3-(3,6-difluoro-9H-carbazol-9-yl)-2-hydroxypropyl)imidazolidin-2-one]
Cry2 mRNA in liver (daytime peak) ([1]; C57Bl/6J DIO and Balb/c mice): strongly attenuated | Per2 mRNA in liver ([1]; C57Bl/6J DIO and Balb/c mice, over 24 hours, vs vehicle): suppressed | circadian pattern of mRNAs for gluconeogenic genes Pckl and G6Pc ([1]; C57Bl/6J DIO mice, relative to vehicle): substantially altered | Bmal1 mRNAs in liver ([1]; both strains, at ZT8 and 32 hours after ZT0, vs vehicle): substantially increased | Cry1 mRNA in liver ([1]; during its peak of expression in the dark period): suppressed | reduction of HOMA-IR compared to vehicle ([2]; 100 mg/kg PO QD 7 days): 34% | OGTT glucose excursion ([2]; 10, 50, 100 mg/kg PO QD 7 days): dose dependent effect on glucose excursion | OGTT glucose course (C57/Bl6J DIO mice [3]): much lower than the vehicle control group | glucose AUC from OGTT (C57/Bl6J DIO mice [3]): 17055+/−769.1 units | OGTT glucose course ([4]; db/db mice): lower than the vehicle control group | reduction of HOMA-IR ([4]; vs vehicle): 33% | reduction of insulin at t=0 ([4]; vs vehicle): 20% | reduction of insulin at t=2 hr ([4]; vs vehicle): 21% | OGTT glucose excursion following a glucose load (C57/Bl6J DIO mice [5]): reduction in glucose excursion
